Test results taken from ChEMBL document CHEMBL4417630, “Small-molecule inhibitors of Rac1 in metastatic breast cancer” (2014).
Activity calls are given as the source filed them. The rule behind the calls is not given here.

What was measured:
[1] = biological target: Ras-related C3 botulinum toxin substrate 3 (Homo sapiens) (UniProt P60763); experiment: Inhibition of Rac3 in human MDA-MB-435 cells assessed as remaining enzyme activity at 1 uM by Western blotting based pulldown assay (reference value: 100%); assay type: cell-based
[2] = biological target: Ras-related C3 botulinum toxin substrate 1 (Homo sapiens) (UniProt P63000); experiment: Potency index, ratio of IC50 for NSC-23766 to IC50 for test compound for inhibition of Rac1 in human MDA-MB-435 cells incubated for 24 hrs by G-LISA Rac1 activation assay; assay type: cell-based
[3] = biological target: Cell division control protein 42 homolog (Homo sapiens) (UniProt P60953); experiment: Inhibition of Cdc42 in human MDA-MB-435 cells assessed as remaining enzyme activity at 2 uM by Western blotting based pulldown assay (reference value: 100%); assay type: cell-based
[4] = biological target: Cell division control protein 42 homolog (Homo sapiens) (UniProt P60953); experiment: Inhibition of Cdc42 in human MDA-MB-435 cells assessed as remaining enzyme activity at 4 uM by Western blotting based pulldown assay (reference value: 100%); assay type: cell-based
[5] = biological target: Cell division control protein 42 homolog (Homo sapiens) (UniProt P60953); experiment: Inhibition of Cdc42 in human MDA-MB-435 cells assessed as remaining enzyme activity at 5 uM by Western blotting based pulldown assay (reference value: 100%); assay type: cell-based
[6] = biological target: Cell division control protein 42 homolog (Homo sapiens) (UniProt P60953); experiment: Inhibition of Cdc42 in human MDA-MB-435 cells assessed as remaining enzyme activity at 10 uM by Western blotting based pulldown assay (reference value: 100%); assay type: cell-based
[7] = biological target: Transforming protein RhoA (Homo sapiens) (UniProt P61586); experiment: Activation of RhoA in human MDA-MB-435 cells assessed as remaining enzyme activity at 2 uM by Western blotting based pulldown assay (reference value: 100%); assay type: cell-based
[8] = biological target: Transforming protein RhoA (Homo sapiens) (UniProt P61586); experiment: Activation of RhoA in human MDA-MB-435 cells assessed as remaining enzyme activity at 4 uM by Western blotting based pulldown assay (reference value: 100%); assay type: cell-based
[9] = biological target: Transforming protein RhoA (Homo sapiens) (UniProt P61586); experiment: Activation of RhoA in human MDA-MB-435 cells assessed as remaining enzyme activity at 5 uM by Western blotting based pulldown assay (reference value: 100%); assay type: cell-based
[10] = biological target: Transforming protein RhoA (Homo sapiens) (UniProt P61586); experiment: Activation of RhoA in human MDA-MB-435 cells assessed as remaining enzyme activity at 10 uM by Western blotting based pulldown assay (reference value: 100%); assay type: cell-based
[11] = test system: Ras-related C3 botulinum toxin substrate 1 (Homo sapiens), P63000 [G15A]; experiment: Inhibition of glutathione agarose conjugated Rac1 G15A mutant (unknown origin) in assessed as reduction in purified Tiam-1 DH/PH domain association with Rac1 G15A mutant at 40 uM by Western blotting based pulldown assay relative to control
[12] = biological target: Ras-related C3 botulinum toxin substrate 1 (Homo sapiens) (UniProt P63000); experiment: Inhibition of Rac1 in human MDA-MB-231 cells assessed as remaining enzyme activity at 2 uM by Western blotting based pulldown assay (reference value: 100%); assay type: cell-based
[13] = biological target: Ras-related C3 botulinum toxin substrate 1 (Homo sapiens) (UniProt P63000); experiment: Inhibition of Rac1 in human MDA-MB-231 cells assessed as remaining enzyme activity at 4 uM by Western blotting based pulldown assay (reference value: 100%); assay type: cell-based
[14] = biological target: Ras-related C3 botulinum toxin substrate 1 (Homo sapiens) (UniProt P63000); experiment: Inhibition of Rac1 in human MDA-MB-435 cells assessed as remaining enzyme activity at 2 uM by Western blotting based pulldown assay (reference value: 100%); assay type: cell-based
[15] = biological target: Ras-related C3 botulinum toxin substrate 1 (Homo sapiens) (UniProt P63000); experiment: Inhibition of Rac1 in human MDA-MB-435 cells assessed as remaining enzyme activity at 4 uM by Western blotting based pulldown assay (reference value: 100%); assay type: cell-based
[16] = biological target: Cell division control protein 42 homolog (Homo sapiens) (UniProt P60953); experiment: Inhibition of Cdc42 in human MDA-MB-435 cells assessed as inhibition of lamellipodia formation at 2 to 4 uM incubated for 24 hrs rhodamine phalloidin staining based fluorescence microscopy; assay type: cell-based
[17] = biological target: Cell division control protein 42 homolog (Homo sapiens) (UniProt P60953); experiment: Inhibition of Cdc42 in human MDA-MB-231 cells assessed as inhibition of lamellipodia formation at 2 to 4 uM incubated for 24 hrs rhodamine phalloidin staining based fluorescence microscopy; assay type: cell-based
[18] = biological target: Ras-related C3 botulinum toxin substrate 1 (Homo sapiens) (UniProt P63000); experiment: Inhibition of Rac1 in human MDA-MB-435 cells assessed as reduction in PAK1 […] phosphorylation at 2 to 4 uM by Western blot analysis; assay type: cell-based
[19] = test system: MDA-MB-231; experiment: Cytotoxicity against human MDA-MB-231 cells assessed as reduction in cell viability at 1 to 2 uM incubated for 24 hrs by MTT assay; assay type: functional, cell-based
[20] = test system: MDA-MB-435; experiment: Cytotoxicity against human MDA-MB-435 cells assessed as reduction in cell viability at 1 to 2 uM incubated for 24 hrs by MTT assay; assay type: functional, cell-based
[21] = test system: MCF-10A; experiment: Cytotoxicity against human MCF10A cells assessed as reduction in cell viability at 1 to 2 uM incubated for 24 hrs by MTT assay; assay type: cell-based
[22] = test system: MDA-MB-435; experiment: Cytotoxicity against human MDA-MB-435 cells assessed as reduction in cell viability at 25 uM incubated for 24 hrs by MTT assay; assay type: functional, cell-based
[23] = test system: MDA-MB-231; experiment: Cytotoxicity against human MDA-MB-231 cells assessed as reduction in cell viability at 25 uM incubated for 24 hrs by MTT assay; assay type: functional, cell-based
[24] = test system: MCF-10A; experiment: Cytotoxicity against human MCF10A cells assessed as reduction in cell viability at 25 uM incubated for 24 hrs by MTT assay; assay type: cell-based
[25] = test system: Ras-related C3 botulinum toxin substrate 1 (Homo sapiens), P63000 [G15A]; experiment: Inhibition of glutathione agarose conjugated Rac1 G15A mutant (unknown origin) in assessed as reduction in purified Tiam-1 DH/PH domain association with Rac1 G15A mutant at […] by Western blotting based pulldown assay relative to control
[26] = Toxicity in athymic nude mouse assessed as effect on body weight at 1 mg/kg, ip dosed once week for 9 weeks; assay type: organism-based; conditions: in vivo, 1512 h
[27] = Toxicity in athymic nude mouse assessed as effect on body weight at 1 mg/kg, po dosed once week for 9 weeks; assay type: organism-based; conditions: in vivo, 1512 h
[28] = Toxicity in athymic nude mouse assessed as effect on gross indications of toxicity at 1 mg/kg, ip dosed once week for 9 weeks; assay type: organism-based; conditions: in vivo, 1512 h
[29] = Toxicity in athymic nude mouse assessed as effect on gross indications of toxicity at 1 mg/kg, po dosed once week for 9 weeks; assay type: organism-based; conditions: in vivo, 1512 h
[30] = test system: Ras-related C3 botulinum toxin substrate 1 (Homo sapiens), P63000 [G15A]; experiment: Inhibition of glutathione agarose conjugated Rac1 G15A mutant (unknown origin) in assessed as reduction in purified Tiam-1 DH/PH domain association with Rac1 G15A mutant by measuring average Tiam-1 level in pulldown at 4 uM by Western blotting based pulldown assay (reference value: 100%); parameters: scale not given: the % may be the effect or the level left
[31] = test system: Ras-related C3 botulinum toxin substrate 1 (Homo sapiens), P63000 [G15A]; experiment: Inhibition of glutathione agarose conjugated Rac1 G15A mutant (unknown origin) in assessed as reduction in purified Tiam-1 DH/PH domain association with Rac1 G15A mutant by measuring average Tiam-1 level in pulldown at 8 uM by Western blotting based pulldown assay (reference value: 100%); parameters: scale not given: the % may be the effect or the level left
[32] = test system: Ras-related C3 botulinum toxin substrate 1 (Homo sapiens), P63000 [G15A]; experiment: Inhibition of glutathione agarose conjugated Rac1 G15A mutant (unknown origin) in assessed as reduction in purified Tiam-1 DH/PH domain association with Rac1 G15A mutant by measuring average Tiam-1 level in pulldown at 25 uM by Western blotting based pulldown assay (reference value: 100%); parameters: scale not given: the % may be the effect or the level left

Cell division control protein 42 homolog (Homo sapiens), sequence (P60953 whole entry, looked up): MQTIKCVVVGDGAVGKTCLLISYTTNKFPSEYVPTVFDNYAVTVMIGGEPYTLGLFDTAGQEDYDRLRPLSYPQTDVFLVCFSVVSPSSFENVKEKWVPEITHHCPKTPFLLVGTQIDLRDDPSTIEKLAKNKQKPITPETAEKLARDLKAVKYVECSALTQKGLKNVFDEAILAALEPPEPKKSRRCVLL
Transforming protein RhoA (Homo sapiens), sequence (P61586 whole entry, the tested form may be a part): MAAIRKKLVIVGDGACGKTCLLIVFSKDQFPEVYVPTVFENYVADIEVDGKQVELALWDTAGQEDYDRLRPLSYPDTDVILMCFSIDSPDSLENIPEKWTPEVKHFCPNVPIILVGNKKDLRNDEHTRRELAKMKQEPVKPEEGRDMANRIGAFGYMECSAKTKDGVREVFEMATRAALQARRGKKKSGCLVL

Question: For CCn1c2ccccc2c2cc(Nc3ccnc(NCCCN4CCOCC4)n3)ccc21, which Activity [1] is on record?
Answer: 42%

Question: And the Ratio IC50 [2]?
Answer: 100

Question: And the Activity [3]?
Answer: 104%

Question: And the Activity [4]?
Answer: 95%

Question: And the Activity [5]?
Answer: 72%

Question: And the Activity [6]?
Answer: 25%

Question: What about the Activity [7] of the same molecule?
Answer: 155%

Question: What about the Activity [8] of the same molecule?
Answer: 128%

Question: What about the Activity [9] of the same molecule?
Answer: 125%

Question: And the Activity [10]?
Answer: 123%

Question: And the inhibition [11]?
Answer: Active

Question: What about the Activity [12] of the same molecule?
Answer: 65%

Question: And the Activity [13]?
Answer: 35%

Question: And the Activity [14]?
Answer: 19%

Question: And the Activity [15]?
Answer: 7%

Question: What about the inhibition [16] of the same molecule?
Answer: inactive

Question: What about the inhibition [17] of the same molecule?
Answer: inactive

Question: And the inhibition [18]?
Answer: Active

Question: What about the Activity [19] of the same molecule?
Answer: inactive

Question: And the Activity [20]?
Answer: inactive

Question: What about the Activity [21] of the same molecule?
Answer: Non-Toxic

Question: And the Activity [22]?
Answer: Active

Question: What about the Activity [23] of the same molecule?
Answer: Active

Question: What about the Activity [24] of the same molecule?
Answer: Toxic

Question: And the inhibition [25]?
Answer: Active

Question: What about the Activity [26] of the same molecule?
Answer: Non-Toxic

Question: And the Activity [27]?
Answer: Non-Toxic

Question: What about the Activity [28] of the same molecule?
Answer: Non-Toxic

Question: What about the Activity [29] of the same molecule?
Answer: Non-Toxic

Question: What about the Activity [30] of the same molecule?
Answer: 123%

Question: And the Activity [31]?
Answer: 96%

Question: What about the Activity [32] of the same molecule?
Answer: 112%
